Results from article PMC10174618, “Monoterpenoid aryl hydrocarbon receptor allosteric antagonists protect against ultraviolet skin damage in female mice” (Nature Communications, 2023).

Key:
Experiment in all cases: biochemical
Set-up in all cases: KINOMEscan scanMAX active site-directed competition binding assay, percent of control, 468 kinases
Conditions in all cases: competition binding, percent of control
AURKB = AURKB (Homo sapiens, UniProt Q96GD4)
Summary of the method: (§1)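 Single-concentration screen (100 μM S-carvone) in a competition binding panel of 468 human kinases (KINOMEscan scanMAX); results given as percent of control, hit cutoff 35%.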

MST3 = target: T1, MST3 (Homo sapiens, UniProt Q9Y6E0)
T1 construct: gene STK24
Summary of the method: as §1

PLK2 = PLK2 (Homo sapiens, UniProt Q9NYY3)
Summary of the method: as §1

PRKG2 = PRKG2 (Homo sapiens, UniProt Q13237)
Summary of the method: as §1

ACVR2A = ACVR2A (Homo sapiens, UniProt P27037)
Summary of the method: as §1

EPHB1 = EPHB1 (Homo sapiens, UniProt P54762)
Summary of the method: as §1

SRPK1 = SRPK1 (Homo sapiens, UniProt Q96SB4)
Summary of the method: as §1

CDK11 = target: T2, CDK11 (Homo sapiens, UniProt Q9BWU1)
T2 construct: gene CDK19
Summary of the method: as §1

CSNK1D = CSNK1D (Homo sapiens, UniProt P48730)
Summary of the method: as §1

p38-delta = target: T3, p38-delta (Homo sapiens, UniProt O15264)
T3 construct: gene MAPK13
Summary of the method: as §1

DMPK2 = target: T4, DMPK2 (Homo sapiens, UniProt Q6DT37)
T4 construct: gene CDC42BPG
Summary of the method: as §1

MYO3B = MYO3B (Homo sapiens, UniProt Q8WXR4)
Summary of the method: as §1

TLK2 = TLK2 (Homo sapiens, UniProt Q86UE8)
Summary of the method: as §1

CAMKK2 = CAMKK2 (Homo sapiens, UniProt Q96RR4)
Summary of the method: as §1

RIOK2 = RIOK2 (Homo sapiens, UniProt Q9BVS4)
Summary of the method: as §1

ACVR1 = ACVR1 (Homo sapiens, UniProt Q04771)
Summary of the method: as §1

FLT3(N841I) = FLT3(N841I) (Homo sapiens, UniProt P36888, N841I)
Summary of the method: as §1

EPHA1 = EPHA1 (Homo sapiens, UniProt P21709)
Summary of the method: as §1

TNK2 = TNK2 (Homo sapiens, UniProt Q07912)
Summary of the method: as §1

PIM3 = PIM3 (Homo sapiens, UniProt Q86V86)
Summary of the method: as §1

MEK6 = target: T5, MEK6 (Homo sapiens, UniProt P52564)
T5 construct: gene MAP2K6
Summary of the method: as §1

IRAK4 = IRAK4 (Homo sapiens, UniProt Q9NWZ3)
Summary of the method: as §1

T2 sequence (Q9BWU1 whole entry): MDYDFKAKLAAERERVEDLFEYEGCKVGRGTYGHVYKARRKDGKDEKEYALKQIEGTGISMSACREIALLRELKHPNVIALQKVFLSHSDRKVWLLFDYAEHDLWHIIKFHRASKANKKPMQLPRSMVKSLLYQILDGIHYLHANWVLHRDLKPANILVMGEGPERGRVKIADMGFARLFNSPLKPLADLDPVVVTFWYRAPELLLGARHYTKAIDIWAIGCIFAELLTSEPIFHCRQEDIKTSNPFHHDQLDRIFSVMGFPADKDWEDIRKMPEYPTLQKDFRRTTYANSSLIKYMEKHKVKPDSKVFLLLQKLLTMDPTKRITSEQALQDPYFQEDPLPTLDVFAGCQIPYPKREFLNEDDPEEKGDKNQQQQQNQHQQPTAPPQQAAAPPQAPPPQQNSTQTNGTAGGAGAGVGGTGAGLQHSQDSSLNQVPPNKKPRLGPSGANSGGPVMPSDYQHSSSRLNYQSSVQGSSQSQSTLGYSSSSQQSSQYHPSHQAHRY
TNK2, sequence (Q07912 whole entry): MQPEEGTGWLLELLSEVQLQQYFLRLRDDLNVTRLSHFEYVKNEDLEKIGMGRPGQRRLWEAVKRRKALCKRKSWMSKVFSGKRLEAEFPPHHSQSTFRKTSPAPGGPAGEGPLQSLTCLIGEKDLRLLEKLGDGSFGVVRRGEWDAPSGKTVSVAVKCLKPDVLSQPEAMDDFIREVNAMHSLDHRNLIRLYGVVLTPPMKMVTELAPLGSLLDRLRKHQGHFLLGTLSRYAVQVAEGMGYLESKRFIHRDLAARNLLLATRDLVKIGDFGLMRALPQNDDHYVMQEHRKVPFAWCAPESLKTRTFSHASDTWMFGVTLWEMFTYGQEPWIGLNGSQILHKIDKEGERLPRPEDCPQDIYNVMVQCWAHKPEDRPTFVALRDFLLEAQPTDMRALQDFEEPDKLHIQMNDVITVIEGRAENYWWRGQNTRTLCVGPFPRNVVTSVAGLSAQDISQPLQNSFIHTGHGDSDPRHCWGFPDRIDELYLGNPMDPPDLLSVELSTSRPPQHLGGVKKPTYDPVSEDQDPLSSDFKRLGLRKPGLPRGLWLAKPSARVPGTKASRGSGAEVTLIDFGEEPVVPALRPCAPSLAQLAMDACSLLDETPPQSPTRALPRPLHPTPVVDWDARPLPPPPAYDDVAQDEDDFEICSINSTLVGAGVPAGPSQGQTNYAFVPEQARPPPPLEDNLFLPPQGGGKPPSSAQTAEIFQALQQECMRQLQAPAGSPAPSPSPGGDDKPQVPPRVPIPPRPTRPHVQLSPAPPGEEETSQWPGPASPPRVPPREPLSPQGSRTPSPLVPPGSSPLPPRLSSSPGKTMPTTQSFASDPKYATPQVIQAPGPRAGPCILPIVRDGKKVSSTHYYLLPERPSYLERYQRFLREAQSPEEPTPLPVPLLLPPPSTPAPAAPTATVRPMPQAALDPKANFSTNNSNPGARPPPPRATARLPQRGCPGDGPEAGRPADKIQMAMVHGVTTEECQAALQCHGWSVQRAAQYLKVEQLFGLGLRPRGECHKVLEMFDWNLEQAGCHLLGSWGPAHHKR
PRKG2, sequence (Q13237 whole entry): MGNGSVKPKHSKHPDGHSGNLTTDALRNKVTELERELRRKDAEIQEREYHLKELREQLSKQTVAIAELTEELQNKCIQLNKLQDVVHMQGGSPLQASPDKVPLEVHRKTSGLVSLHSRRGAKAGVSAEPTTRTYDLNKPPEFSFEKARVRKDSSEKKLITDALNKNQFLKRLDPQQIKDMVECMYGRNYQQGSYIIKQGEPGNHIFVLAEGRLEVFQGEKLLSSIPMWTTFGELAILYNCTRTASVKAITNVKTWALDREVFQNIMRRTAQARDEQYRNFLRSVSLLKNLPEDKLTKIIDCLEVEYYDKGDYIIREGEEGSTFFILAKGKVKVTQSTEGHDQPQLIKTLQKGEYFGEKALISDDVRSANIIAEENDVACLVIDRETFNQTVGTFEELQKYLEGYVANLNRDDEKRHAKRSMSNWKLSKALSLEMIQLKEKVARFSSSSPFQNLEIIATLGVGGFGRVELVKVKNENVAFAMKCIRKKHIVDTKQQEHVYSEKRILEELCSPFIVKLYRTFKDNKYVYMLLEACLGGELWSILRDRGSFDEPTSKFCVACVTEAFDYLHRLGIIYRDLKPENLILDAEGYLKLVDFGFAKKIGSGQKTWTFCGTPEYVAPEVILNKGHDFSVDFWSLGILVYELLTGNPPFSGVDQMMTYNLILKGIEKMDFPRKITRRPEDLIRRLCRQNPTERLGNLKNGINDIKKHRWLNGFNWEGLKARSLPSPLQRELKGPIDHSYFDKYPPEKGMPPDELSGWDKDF
T4 sequence (Q6DT37 whole entry): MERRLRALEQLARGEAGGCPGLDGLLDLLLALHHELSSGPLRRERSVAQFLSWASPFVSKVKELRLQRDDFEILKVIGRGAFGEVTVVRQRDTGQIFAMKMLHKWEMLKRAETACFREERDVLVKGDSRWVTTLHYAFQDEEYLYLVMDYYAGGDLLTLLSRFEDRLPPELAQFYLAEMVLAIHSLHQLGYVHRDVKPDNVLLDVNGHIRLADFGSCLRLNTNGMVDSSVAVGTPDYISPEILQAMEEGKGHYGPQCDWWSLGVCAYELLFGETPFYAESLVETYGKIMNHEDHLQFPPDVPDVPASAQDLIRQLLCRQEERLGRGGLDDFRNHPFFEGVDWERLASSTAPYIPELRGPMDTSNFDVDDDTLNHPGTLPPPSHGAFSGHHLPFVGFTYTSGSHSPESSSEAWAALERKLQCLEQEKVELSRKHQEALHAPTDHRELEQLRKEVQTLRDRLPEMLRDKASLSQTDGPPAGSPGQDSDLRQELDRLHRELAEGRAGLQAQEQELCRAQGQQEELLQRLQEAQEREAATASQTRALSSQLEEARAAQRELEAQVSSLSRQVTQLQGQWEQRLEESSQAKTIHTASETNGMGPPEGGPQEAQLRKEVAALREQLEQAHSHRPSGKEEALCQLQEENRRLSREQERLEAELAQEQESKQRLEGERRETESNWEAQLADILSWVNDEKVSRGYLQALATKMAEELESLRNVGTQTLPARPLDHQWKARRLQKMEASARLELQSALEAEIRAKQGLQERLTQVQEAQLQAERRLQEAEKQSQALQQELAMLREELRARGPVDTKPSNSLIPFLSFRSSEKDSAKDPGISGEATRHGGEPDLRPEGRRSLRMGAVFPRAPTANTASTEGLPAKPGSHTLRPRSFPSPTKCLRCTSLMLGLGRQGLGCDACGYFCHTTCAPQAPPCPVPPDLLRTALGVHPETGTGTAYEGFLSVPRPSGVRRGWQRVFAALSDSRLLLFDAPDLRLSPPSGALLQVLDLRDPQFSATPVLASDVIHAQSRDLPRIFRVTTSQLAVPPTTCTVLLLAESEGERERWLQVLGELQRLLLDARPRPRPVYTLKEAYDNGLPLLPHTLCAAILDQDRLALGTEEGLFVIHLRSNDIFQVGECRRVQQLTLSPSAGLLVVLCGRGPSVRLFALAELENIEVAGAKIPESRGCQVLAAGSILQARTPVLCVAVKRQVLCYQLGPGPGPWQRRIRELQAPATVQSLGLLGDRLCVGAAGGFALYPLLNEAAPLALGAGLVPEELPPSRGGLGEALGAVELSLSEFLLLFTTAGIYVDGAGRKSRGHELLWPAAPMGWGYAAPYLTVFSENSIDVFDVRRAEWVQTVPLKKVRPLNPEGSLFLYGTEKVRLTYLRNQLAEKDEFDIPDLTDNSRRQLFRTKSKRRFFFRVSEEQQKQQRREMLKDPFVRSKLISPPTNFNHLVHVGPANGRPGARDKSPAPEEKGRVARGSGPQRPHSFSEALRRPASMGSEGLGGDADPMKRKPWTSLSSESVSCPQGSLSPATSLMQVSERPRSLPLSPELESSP
CSNK1D, sequence (P48730 whole entry): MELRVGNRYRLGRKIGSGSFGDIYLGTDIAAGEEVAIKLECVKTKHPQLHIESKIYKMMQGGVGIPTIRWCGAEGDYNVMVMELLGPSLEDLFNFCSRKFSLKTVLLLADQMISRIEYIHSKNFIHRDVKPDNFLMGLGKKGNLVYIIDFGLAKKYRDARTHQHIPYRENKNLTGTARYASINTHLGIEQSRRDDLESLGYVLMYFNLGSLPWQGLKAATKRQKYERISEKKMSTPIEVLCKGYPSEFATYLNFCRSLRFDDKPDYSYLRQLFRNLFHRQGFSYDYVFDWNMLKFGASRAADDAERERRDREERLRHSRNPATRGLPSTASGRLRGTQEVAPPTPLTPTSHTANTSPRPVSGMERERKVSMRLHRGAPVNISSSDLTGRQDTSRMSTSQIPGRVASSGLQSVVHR
AURKB, sequence (Q96GD4 whole entry): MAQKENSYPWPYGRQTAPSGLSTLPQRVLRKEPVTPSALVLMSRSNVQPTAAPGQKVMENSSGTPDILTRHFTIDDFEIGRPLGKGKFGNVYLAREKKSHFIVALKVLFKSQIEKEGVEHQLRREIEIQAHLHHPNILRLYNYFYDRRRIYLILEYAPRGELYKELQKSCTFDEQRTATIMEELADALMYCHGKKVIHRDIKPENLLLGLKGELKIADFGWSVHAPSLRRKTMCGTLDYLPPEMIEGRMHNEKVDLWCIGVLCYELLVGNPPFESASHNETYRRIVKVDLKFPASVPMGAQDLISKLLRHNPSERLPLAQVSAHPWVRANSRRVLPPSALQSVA
T5 sequence (P52564 whole entry): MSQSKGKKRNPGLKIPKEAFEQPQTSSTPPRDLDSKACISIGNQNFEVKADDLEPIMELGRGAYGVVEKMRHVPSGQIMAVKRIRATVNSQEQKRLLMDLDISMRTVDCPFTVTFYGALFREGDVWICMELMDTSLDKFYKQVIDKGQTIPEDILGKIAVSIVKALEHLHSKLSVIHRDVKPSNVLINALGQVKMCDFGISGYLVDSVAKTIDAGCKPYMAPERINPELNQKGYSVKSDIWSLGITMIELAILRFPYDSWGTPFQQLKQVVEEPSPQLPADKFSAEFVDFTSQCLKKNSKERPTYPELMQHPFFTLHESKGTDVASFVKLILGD

remaining binding at 100 µM (AURKB): 68% | remaining binding at 100 µM (MST3): 64% | remaining binding at 100 µM (PLK2): 68% | remaining binding at 100 µM (PRKG2): 76% | remaining binding at 100 µM (ACVR2A): 90% | remaining binding at 100 µM (EPHB1): 88% | remaining binding at 100 µM (SRPK1): 77% | remaining binding at 100 µM (CDK11): 98% | remaining binding at 100 µM (CSNK1D): 68% | remaining binding at 100 µM (p38-delta): 57% | remaining binding at 100 µM (DMPK2): 83% | remaining binding at 100 µM (MYO3B): 94% | remaining binding at 100 µM (TLK2): 94% | remaining binding at 100 µM (CAMKK2): 81% | remaining binding at 100 µM (RIOK2): 90% | remaining binding at 100 µM (ACVR1): 89% | remaining binding at 100 µM (FLT3(N841I)): 63% | remaining binding at 100 µM (EPHA1): 82% | remaining binding at 100 µM (TNK2): 93% | remaining binding at 100 µM (PIM3): 72% | remaining binding at 100 µM (MEK6): 82% | remaining binding at 100 µM (IRAK4): 68%
Compound: C=C(C)[C@H]1CC=C(C)C(=O)C1 [S-carvone]
